Source: US20190209501A1, “COMPOSITIONS AND METHODS OF USE OF BETA-HYDROXY-BETA-METHYLBUTYRATE (HMB) […] IN[…]” (Texas Tech University Office of Research Commercialization, priority 2018, published 2019)

Columns and labels:
[1] = Resistance training workout volume; format: in vivo, human; conditions: for LB Volume ES (d) / LS Session Volume ES (d) / UB Session Volume ES (d) / UB Volume ES (d): effect size; for LB Volume Δ / LB Volume Δ (%) / LS Session Volume Δ / LS Session Volume Δ (%) / UB Session Volume Δ / UB Session Volume Δ (%) / UB Volume Δ / UB Volume Δ (%): first to second 4 weeks
Description: All groups completed 8 weeks of supervised RT in conjunction with the assigned dietary and supplementation programs. Training took place within the research laboratories under direct supervision. RT sessions were completed on 3 nonconsecutive days each week (i.e. Mondays, Wednesdays and Fridays), and upper- and lower-body sessions were alternated (Table 1).
Participants were instructed to train to momentary muscular exhaustion for each set, and the load was adjusted as necessary to ensure compliance with the specified repetition range. The weights and repetitions completed for each set of each exercise were recorded to allow for calculation of RT volume. Sessions took place between 12:00 and 18:00. […] Following each RT session, participants from each group were provided with 25 g whey protein (Elite 100% Whey, Dymatize Enterprises, LLC, Dallas, Tex. USA).

[2] = Vascular assessments (blood pressure, aortic pulse wave velocity); format: in vivo, human; design: Pulse Wave Velocity: unit not given here; conditions: for Aortic Diastolic Pressure / Aortic Systolic Pressure / Brachial Diastolic Pressure / Brachial Systolic Pressure / Heart Rate / Pulse Wave Velocity: mean ± SE; for Aortic Diastolic Pressure Δ / Aortic Diastolic Pressure Δ (%) / Aortic Systolic Pressure Δ / Aortic Systolic Pressure Δ (%) / Brachial Diastolic Pressure Δ / Brachial Diastolic Pressure Δ (%) / Brachial Systolic Pressure Δ / Brachial Systolic Pressure Δ (%) / Heart Rate Δ / Heart Rate Δ (%) / Pulse Wave Velocity Δ / Pulse Wave Velocity Δ (%): change baseline to W 8; for Aortic Diastolic Pressure ES (d) / Aortic Systolic Pressure ES (d) / Brachial Diastolic Pressure ES (d) / Brachial Systolic Pressure ES (d) / Heart Rate ES (d) / Pulse Wave Velocity ES (d): effect size
Protocol: Brachial blood pressure was measured using an automated cuff-based sphygmomanometer (HEM-907, Omron Healthcare. Kyoto, Japan). From this measurement, mean blood pressure and diastolic blood pressure were used to calibrate ensemble-averaged pressure waveforms measured at the left radial artery using applanation tonometry (SphygmoCor PVx, AtCor Medical, Itasca, Ill., USA). A general transfer function was also used to synthesize a central aortic waveform from the radial artery measurement. Wave separation analysis of the aortic pressure waveform allowed estimation of aortic pulse wave velocity (PWV), an index of arterial stiffness. Each participant remained supine for ≥10 min prior to vascular assessment. Duplicate measurements were obtained and averaged for analysis.

## CC(C)(O)CC(=O)O [TRFHMB, β-hydroxy-β-methylbutyrate]
[1]; ITT, First 4 weeks
  LB Volume: 50374 ± 4107 kg
  LS Session Volume: 8734 ± 659 kg
  UB Session Volume: 2722 ± 210 kg
  UB Volume: 15715 ± 1317 kg
[1]; ITT, Second 4 weeks
  LB Volume: 56873 ± 4655 kg
  LS Session Volume: 10978 ± 902 kg
  UB Session Volume: 3336 ± 215 kg
  UB Volume: 17437 ± 1298 kg
[1]; ITT
  LB Volume ES (d): 0.41
  LS Session Volume ES (d): 0.79
  UB Session Volume ES (d): 0.80
  UB Volume ES (d): 0.37
  LB Volume Δ: 6499 kg
  LB Volume Δ (%): 13%
  LS Session Volume Δ: 2244 kg
  LS Session Volume Δ (%): 26%
  UB Session Volume Δ: 614 kg
  UB Session Volume Δ (%): 23%
  UB Volume Δ: 1722 kg
  UB Volume Δ (%): 11%
[1]; PP, First 4 weeks
  LB Volume: 54729 ± 5724 kg
  LS Session Volume: 9434 ± 944 kg
  UB Session Volume: 2869 ± 303 kg
  UB Volume: 16696 ± 1851 kg
[1]; PP, Second 4 weeks
  LB Volume: 60345 ± 6263 kg
  LS Session Volume: 11915 ± 1281 kg
  UB Session Volume: 3463 ± 297 kg
  UB Volume: 17923 ± 1749 kg
[1]; PP
  LB Volume ES (d): 0.34
  LS Session Volume ES (d): 0.83
  UB Session Volume ES (d): 0.75
  UB Volume ES (d): 0.26
  LB Volume Δ: 5616 kg
  LB Volume Δ (%): 10%
  LS Session Volume Δ: 2481 kg
  LS Session Volume Δ (%): 26%
  UB Session Volume Δ: 594 kg
  UB Session Volume Δ (%): 21%
  UB Volume Δ: 1227 kg
  UB Volume Δ (%): 7%
[2]; ITT, Baseline
  Aortic Diastolic Pressure: 68 ± 2 mmHg
  Aortic Systolic Pressure: 96 ± 2 mmHg
  Brachial Diastolic Pressure: 67 ± 1 mmHg
  Brachial Systolic Pressure: 112 ± 2 mmHg
  Heart Rate: 62 ± 3 bpm
  Pulse Wave Velocity: 5.5 ± 0.2
[2]; ITT, W 8
  Aortic Diastolic Pressure: 64 ± 2 mmHg
  Aortic Systolic Pressure: 94 ± 2 mmHg
  Brachial Diastolic Pressure: 63 ± 2 mmHg
  Brachial Systolic Pressure: 110 ± 2 mmHg
  Heart Rate: 63 ± 3 bpm
  Pulse Wave Velocity: 5.7 ± 0.1
[2]; ITT
  Aortic Diastolic Pressure Δ: −4 mmHg
  Aortic Diastolic Pressure Δ (%): −6%
  Aortic Systolic Pressure Δ: −2 mmHg
  Aortic Systolic Pressure Δ (%): −2%
  Brachial Diastolic Pressure Δ: −4 mmHg
  Brachial Diastolic Pressure Δ (%): −6%
  Brachial Systolic Pressure Δ: −2 mmHg
  Brachial Systolic Pressure Δ (%): −2%
  Heart Rate Δ: 1 bpm
  Heart Rate Δ (%): 2%
  Pulse Wave Velocity Δ: 0.2
  Pulse Wave Velocity Δ (%): 4%
  Aortic Diastolic Pressure ES (d): −0.64
  Aortic Systolic Pressure ES (d): −0.46
  Brachial Diastolic Pressure ES (d): −0.63
  Brachial Systolic Pressure ES (d): −0.22
  Heart Rate ES (d): 0.07
  Pulse Wave Velocity ES (d): 0.37
[2]; PP, Baseline
  Aortic Diastolic Pressure: 68 ± 2 mmHg
  Aortic Systolic Pressure: 97 ± 2 mmHg
  Brachial Diastolic Pressure: 67 ± 2 mmHg
  Brachial Systolic Pressure: 111 ± 2 mmHg
  Heart Rate: 62 ± 5 bpm
  Pulse Wave Velocity: 5.5 ± 0.3
[2]; PP, W 8
  Aortic Diastolic Pressure: 65 ± 2 mmHg
  Aortic Systolic Pressure: 95 ± 2 mmHg
  Brachial Diastolic Pressure: 64 ± 2 mmHg
  Brachial Systolic Pressure: 112 ± 2 mmHg
  Heart Rate: 62 ± 5 bpm
  Pulse Wave Velocity: 5.8 ± 0.2
[2]; PP
  Aortic Diastolic Pressure Δ: −3 mmHg
  Aortic Diastolic Pressure Δ (%): −4%
  Aortic Systolic Pressure Δ: −2 mmHg
  Aortic Systolic Pressure Δ (%): −2%
  Brachial Diastolic Pressure Δ: −3 mmHg
  Brachial Diastolic Pressure Δ (%): −4%
  Brachial Systolic Pressure Δ: 1 mmHg
  Brachial Systolic Pressure Δ (%): 1%
  Heart Rate Δ: 0 bpm
  Heart Rate Δ (%): 0%
  Pulse Wave Velocity Δ: 0.3
  Pulse Wave Velocity Δ (%): 5%
  Aortic Diastolic Pressure ES (d): −0.53
  Aortic Systolic Pressure ES (d): −0.20
  Brachial Diastolic Pressure ES (d): −0.49
  Brachial Systolic Pressure ES (d): 0.13
  Heart Rate ES (d): 0.06
  Pulse Wave Velocity ES (d): 0.46
